Data from PMC10951960, “CGP7930 - An allosteric modulator of GABABRs, GABAARs and inwardly-rectifying potassium channels” (Neuropharmacology, 2023).
Where two headings read alike, the source gives them in different places.

Experiments:
[1] = biological target: T1, GABAB receptors (R1a and R2) (Mus musculus, UniProt Q80T41+Q9WV18); assay: GABA-activated K+ currents in GIRK cells (HEK cells stably expressing Kir3.1/3.2, transfected with GABAB R1a and R2), whole-cell patch clamp; type: cell-based, murine
T1 construct: expressed in transfected cells; host or cells: HEK-293 cells stably expressing Kir3.1/3.2 (GIRK cells)
T1 sequence (Q9WV18 20-960): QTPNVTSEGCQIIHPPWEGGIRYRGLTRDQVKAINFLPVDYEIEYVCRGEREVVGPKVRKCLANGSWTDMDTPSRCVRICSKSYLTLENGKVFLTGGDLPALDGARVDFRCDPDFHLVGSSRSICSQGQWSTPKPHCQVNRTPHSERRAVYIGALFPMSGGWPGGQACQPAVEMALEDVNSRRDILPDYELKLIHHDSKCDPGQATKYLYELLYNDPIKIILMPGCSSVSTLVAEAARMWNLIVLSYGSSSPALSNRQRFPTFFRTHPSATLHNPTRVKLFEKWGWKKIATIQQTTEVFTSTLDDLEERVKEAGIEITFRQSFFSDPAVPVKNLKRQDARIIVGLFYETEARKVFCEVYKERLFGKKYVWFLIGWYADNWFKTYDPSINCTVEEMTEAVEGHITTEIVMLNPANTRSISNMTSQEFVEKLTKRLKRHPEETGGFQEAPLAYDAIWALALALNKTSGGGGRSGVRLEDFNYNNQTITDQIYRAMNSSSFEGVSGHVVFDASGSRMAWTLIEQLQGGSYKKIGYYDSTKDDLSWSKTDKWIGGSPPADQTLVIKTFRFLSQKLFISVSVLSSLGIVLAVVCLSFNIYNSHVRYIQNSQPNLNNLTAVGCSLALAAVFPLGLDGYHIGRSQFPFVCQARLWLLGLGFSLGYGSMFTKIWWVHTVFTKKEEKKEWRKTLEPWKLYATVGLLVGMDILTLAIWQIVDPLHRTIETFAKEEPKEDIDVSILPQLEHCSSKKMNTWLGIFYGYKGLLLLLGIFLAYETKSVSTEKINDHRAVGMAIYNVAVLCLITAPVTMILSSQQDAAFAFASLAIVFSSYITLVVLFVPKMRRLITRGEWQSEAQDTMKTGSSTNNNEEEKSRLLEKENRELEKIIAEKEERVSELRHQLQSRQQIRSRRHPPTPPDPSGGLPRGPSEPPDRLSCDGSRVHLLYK
T1 sequence (Q80T41 41-940): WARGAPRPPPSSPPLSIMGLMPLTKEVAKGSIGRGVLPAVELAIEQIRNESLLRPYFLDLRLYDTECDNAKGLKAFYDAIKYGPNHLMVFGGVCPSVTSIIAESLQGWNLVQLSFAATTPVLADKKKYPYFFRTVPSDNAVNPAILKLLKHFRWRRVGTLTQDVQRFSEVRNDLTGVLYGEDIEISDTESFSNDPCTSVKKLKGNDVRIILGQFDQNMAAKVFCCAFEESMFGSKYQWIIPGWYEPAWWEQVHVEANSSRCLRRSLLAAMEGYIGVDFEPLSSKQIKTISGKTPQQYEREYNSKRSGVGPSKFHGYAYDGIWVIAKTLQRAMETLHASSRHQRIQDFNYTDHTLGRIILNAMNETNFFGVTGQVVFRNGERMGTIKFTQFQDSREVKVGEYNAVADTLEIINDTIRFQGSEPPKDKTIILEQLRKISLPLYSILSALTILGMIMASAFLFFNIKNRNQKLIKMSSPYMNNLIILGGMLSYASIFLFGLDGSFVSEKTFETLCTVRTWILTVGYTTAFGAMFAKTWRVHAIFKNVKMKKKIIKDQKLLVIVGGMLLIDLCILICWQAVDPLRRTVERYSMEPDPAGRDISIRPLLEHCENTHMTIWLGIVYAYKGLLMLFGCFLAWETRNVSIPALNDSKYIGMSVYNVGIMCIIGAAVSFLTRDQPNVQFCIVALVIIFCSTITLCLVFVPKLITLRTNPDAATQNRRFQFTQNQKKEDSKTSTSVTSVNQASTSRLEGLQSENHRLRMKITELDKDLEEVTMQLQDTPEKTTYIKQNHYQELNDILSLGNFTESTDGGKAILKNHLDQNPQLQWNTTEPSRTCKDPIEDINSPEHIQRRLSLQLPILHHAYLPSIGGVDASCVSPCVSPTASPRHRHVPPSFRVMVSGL
Description: (§1) CGP55845, and other drugs, were obtained from Merck (Sigma-Aldrich) unless otherwise stated.
(§2) All cell culture reagents were acquired from ThermoFisher unless otherwise stated. […] These cells are referred to as GIRK cells throughout the text and were transiently transfected with cDNAs for eGFP, GABAB R1a and R2 in a 1:1:5 ratio applied 1–2 h after cell plating.
(§3) Spontaneous inhibitory postsynaptic currents (sIPSCs) were recorded from cultured hippocampal neurons at 12–17 days in vitro (DIV). […] GABABR-activated K^+ currents in cultured neurons were recorded in the additional presence of 2 mM kynurenic acid and 20 μM picrotoxin.
(§4) Borosilicate glass electrodes (3–5 MΩ) were filled with a K^+-based internal solution for recording GIRK currents containing (mM): 120 KCl, 2 MgCl2, 11 EGTA, 30 KOH, 10 HEPES, 1 CaCl2, 1 GTP, 2 ATP, 14 creatine phosphate, pH 7.0. GABAAR currents and sIPSCs were recorded with a Cs-based internal solution containing (mM): 120 CsCl, 1 MgCl2, 11 EGTA, 30 KOH, 10 HEPES, 1 CaCl2, and 2 K2ATP; pH 7.2. […] Cells were held at −60 mV (sIPSCs) or −60/−70 mV (K^+ currents). Voltage clamp recordings were undertaken after optimising series resistance (Rs, <10 MΩ) and compensating for the whole-cell membrane capacitance. Membrane currents were filtered at 5 kHz (−3 dB, 6th pole Bessel, 36 dB/octave) and stored for analysis with Clampex 10.
(§5) Concentration-response curves were generated by measuring the current (I) for each ligand concentration and normalising to the maximal current response (Imax).
These cells were bathed in high external K^+ concentration Krebs to reverse the direction of net K^+ current flow.

neuronal GABABRs = biological target: T2, neuronal GABABRs (Rattus norvegicus, UniProt O88871+Q9Z0U4); assay: baclofen-activated GIRK currents in hippocampal cultures, high external K+, whole-cell voltage clamp; type: cell-based; settings: read-out: EC50 for CGP7930 potentiation of baclofen response
T2 construct: endogenous in cells; host or cells: cultured rat (E18 Sprague-Dawley) hippocampal neurons, 12-17 DIV
Description: (§6) Briefly, single cells derived from dissected hippocampi were seeded onto glass coverslips coated with poly-D-lysine in a plating medium containing minimum essential media with 5% v/v heat-inactivated FCS, 5% v/v heat-inactivated horse serum, penicillin-G/streptomycin (100 U/100 μg/ml), 2 mM L-glutamine, and 20 mM glucose. Two hr after plating the media was changed to a Neurobasal-A based maintenance media supplemented with 1% v/v B-27, penicillin-G/streptomycin (100 U/100 μg/ml), 0.5% v/v Glutamax and 35 mM glucose.
as §3
as §4, with “Membrane currents were filtered at 5 kHz (−3 dB, 6th pole Bessel, 36 dB/octave) and stored for analysis with Clampex 10.” left out

[2] = test system: native GABAARs in hippocampal neurons; assay: muscimol-activated and CGP7930-activated GABAAR currents in hippocampal neurons, Cs+-based internal solution; type: cell-based, rat
Description: as §6
(§7) Spontaneous inhibitory postsynaptic currents (sIPSCs) were recorded from cultured hippocampal neurons at 12–17 days in vitro (DIV). […] For recording K^+ currents in GIRK cells and neurons, the bath solution was switched to a high K^+ solution containing 25 mM KCl and reduced NaCl (120 mM), to shift the equilibrium potential for K^+ from approximately −90 to −47 mV, thus reversing the direction of K^+ current flux to net inward. GABABR-activated K^+ currents in cultured neurons were recorded in the additional presence of 2 mM kynurenic acid and 20 μM picrotoxin.
as §4, §5

α1β2γ2L GABAAR = biological target: T3, α1β2γ2L GABAAR (Mus musculus, UniProt P22723+P62812+P63137); assay: whole-cell currents of recombinant GABAA receptors in HEK-293 cells (α1β2γ2L); type: cell-based, murine
T3 construct: expressed in transfected cells; host or cells: HEK-293T
T3 sequence (P62812 28-455): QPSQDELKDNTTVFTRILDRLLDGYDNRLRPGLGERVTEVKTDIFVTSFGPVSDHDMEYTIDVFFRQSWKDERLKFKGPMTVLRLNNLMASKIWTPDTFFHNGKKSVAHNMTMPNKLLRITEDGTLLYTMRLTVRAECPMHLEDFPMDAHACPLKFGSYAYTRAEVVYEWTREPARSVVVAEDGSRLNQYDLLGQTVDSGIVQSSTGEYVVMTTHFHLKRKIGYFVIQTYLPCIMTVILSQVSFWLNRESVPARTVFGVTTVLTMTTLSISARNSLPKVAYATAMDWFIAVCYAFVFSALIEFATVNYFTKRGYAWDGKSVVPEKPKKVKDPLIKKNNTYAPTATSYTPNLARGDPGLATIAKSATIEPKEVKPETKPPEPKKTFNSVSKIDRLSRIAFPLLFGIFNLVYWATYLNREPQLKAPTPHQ
T3 sequence (P63137 25-512 limits assumed): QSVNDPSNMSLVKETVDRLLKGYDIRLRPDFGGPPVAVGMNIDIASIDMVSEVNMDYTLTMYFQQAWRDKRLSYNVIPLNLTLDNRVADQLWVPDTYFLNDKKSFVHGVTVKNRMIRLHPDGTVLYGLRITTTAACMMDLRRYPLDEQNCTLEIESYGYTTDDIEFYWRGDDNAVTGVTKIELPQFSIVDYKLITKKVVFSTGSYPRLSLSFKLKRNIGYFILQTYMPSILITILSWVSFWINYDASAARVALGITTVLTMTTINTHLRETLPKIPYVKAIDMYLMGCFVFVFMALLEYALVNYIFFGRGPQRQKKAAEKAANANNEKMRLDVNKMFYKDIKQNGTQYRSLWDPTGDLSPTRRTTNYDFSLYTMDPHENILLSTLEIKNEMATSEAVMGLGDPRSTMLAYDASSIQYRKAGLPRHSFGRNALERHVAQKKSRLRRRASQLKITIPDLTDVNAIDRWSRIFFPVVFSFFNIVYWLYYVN
T3 sequence (P22723 39-474): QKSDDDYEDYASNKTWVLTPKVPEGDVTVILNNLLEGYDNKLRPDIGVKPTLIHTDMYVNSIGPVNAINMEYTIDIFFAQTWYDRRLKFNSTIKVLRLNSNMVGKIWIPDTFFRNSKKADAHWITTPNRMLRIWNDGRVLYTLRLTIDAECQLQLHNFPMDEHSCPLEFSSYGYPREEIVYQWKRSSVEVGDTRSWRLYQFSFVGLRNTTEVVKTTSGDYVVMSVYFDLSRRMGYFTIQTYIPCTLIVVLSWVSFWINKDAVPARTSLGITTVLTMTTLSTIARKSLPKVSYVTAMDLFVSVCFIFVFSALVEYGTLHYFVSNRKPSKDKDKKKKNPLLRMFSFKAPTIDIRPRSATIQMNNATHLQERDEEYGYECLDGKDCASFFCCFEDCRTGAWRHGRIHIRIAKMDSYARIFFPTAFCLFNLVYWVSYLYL
Description: as §1, §2, §7, §4, §5
(§8) We explored the ability of CGP7930 to modulate different recombinant GABAARs expressed in HEK-293 cells to avoid confounds arising from heterogeneous receptor subtypes in neurons.

α4β3δ GABAAR = biological target: T4, α4β3δ GABAAR (Mus musculus, UniProt P22933+P63080+Q9D6F4); assay: whole-cell currents of recombinant GABAA receptors in HEK-293 cells (α4β3δ); type: cell-based, murine
T4 construct: expressed in transfected cells; host or cells: HEK-293T
T4 sequence (Q9D6F4 36-552): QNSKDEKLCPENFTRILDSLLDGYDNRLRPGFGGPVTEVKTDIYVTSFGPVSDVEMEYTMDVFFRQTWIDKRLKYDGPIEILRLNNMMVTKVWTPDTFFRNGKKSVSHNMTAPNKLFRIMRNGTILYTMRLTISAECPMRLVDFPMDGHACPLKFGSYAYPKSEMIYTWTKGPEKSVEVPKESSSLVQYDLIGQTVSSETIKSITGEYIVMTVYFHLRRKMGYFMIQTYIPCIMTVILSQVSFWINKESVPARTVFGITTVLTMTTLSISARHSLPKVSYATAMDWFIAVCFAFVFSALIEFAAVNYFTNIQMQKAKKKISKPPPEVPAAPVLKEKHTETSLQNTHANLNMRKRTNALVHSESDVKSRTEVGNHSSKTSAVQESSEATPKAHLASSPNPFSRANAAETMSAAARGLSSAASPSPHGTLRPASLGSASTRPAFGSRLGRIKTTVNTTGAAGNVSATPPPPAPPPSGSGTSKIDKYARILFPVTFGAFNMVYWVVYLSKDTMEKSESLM
T4 sequence (P63080 26-473): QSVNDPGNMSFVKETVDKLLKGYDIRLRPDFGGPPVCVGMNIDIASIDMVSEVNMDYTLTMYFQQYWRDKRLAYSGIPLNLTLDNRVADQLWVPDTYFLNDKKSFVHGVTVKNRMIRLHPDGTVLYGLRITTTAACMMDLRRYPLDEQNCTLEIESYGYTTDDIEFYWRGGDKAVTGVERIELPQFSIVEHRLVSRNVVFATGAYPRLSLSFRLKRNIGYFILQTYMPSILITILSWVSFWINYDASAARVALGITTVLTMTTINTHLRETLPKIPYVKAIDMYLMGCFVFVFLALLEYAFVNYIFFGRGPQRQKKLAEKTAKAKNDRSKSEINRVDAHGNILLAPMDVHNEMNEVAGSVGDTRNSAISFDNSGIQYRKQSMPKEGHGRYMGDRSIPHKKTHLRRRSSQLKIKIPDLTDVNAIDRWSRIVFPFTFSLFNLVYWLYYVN
T4 sequence (P22933 17-449 limits assumed): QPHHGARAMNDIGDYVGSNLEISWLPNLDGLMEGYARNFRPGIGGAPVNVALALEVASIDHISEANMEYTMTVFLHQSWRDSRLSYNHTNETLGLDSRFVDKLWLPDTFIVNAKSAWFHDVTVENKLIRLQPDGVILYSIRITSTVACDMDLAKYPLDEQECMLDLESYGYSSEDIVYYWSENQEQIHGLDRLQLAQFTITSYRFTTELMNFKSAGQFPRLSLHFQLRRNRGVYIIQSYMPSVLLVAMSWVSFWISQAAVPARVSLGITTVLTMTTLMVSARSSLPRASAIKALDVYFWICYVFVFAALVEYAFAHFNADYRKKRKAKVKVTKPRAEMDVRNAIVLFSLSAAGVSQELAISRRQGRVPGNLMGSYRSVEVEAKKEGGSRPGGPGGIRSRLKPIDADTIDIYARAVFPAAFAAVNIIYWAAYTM
Description: as §1, §2, §7, §4, §5, §8

[3] = test system: GABAAR-mediated sIPSCs in hippocampal neurons; assay: phasic inhibition: sIPSCs in cultured hippocampal neurons in the presence of CGP55845 (1 μM); type: cell-based, rat; settings: mean ± SEM
Description: as §6, §7, §4
sIPSCs were recorded at room temperature (20–23 °C) and detected using WinEDR and WinWCP (Strathclyde Electrophysiology Software UK), and frequency was calculated for 60 s recording epochs. For sIPSC amplitudes, several hundred events were recorded per condition and analysed as an average amplitude per cell.
For kinetic analysis, individual uncontaminated sIPSCs were isolated and the average 10–90% rise time and exponential decay times were measured from the mean sIPSC waveform. Weighted decay times are reported encompassing mono- and bi-exponentially decaying events according to the equation:τw = (A1 *τ1 + A2 *τ2) / (A1 + A2)where τ1 and τ2 are exponential decay time constants, and A1 and A2 are the relative amplitude contributions of τ1 and τ2, respectively.

potentiation reached, of the maximum GABA current activation of GABABRs ([1]; GIRK cells, ∼EC20 GABA): ~30%
concentration at which GABABR signalling is inhibited ([1]; highlights statement): > 3 µM
EC50 ([1]; read-out: EC50 for CGP7930 modulating EC20 GABAB receptor activated currents): 11.1 ± 7 µM
IC50 ([1]; read-out: IC50 for CGP7930 modulating EC20 GABAB receptor activated currents): 10.5 ± 2 µM
EC50 (neuronal GABABRs): 0.9 ± 0.6 µM
EC50 ([2]; hippocampal neurons, n = 8, read-out: EC50 for direct activation (CGP7930 alone)): 5.2 ± 0.1 µM
EC50 ([2]; ∼EC10-15 muscimol (0.5 μM), direct effect subtracted, n = 10, read-out: EC50 for CGP7930 potentiation of muscimol response): 2 ± 1.1 µM
IC50 ([2]; ∼EC10-15 muscimol (0.5 μM), direct effect subtracted, n = 10, read-out: IC50 of bell-shaped muscimol potentiation curve): 7.9 ± 1.8 µM
IC50 (α1β2γ2L GABAAR): 6.6 ± 2.3 µM
EC50 (α1β2γ2L GABAAR; EC50 of GABA EC20 modulation curve, α1β2γ2L, ∼EC20 GABA, direct effects subtracted, n = 5): 1.7 ± 1.3 µM
EC50 (α1β2γ2L GABAAR; α1β2γ2L (αβγ), read-out: EC50 for direct activation by CGP7930 alone): 9.3 ± 0.7 µM
threshold for direct activation (α1β2γ2L GABAAR; α1β2γ2L, CGP7930 alone): 1 to 3 µM
concentration at which clear direct activation became evident (α1β2γ2L GABAAR; α1β2γ2L, pre-application): 3 to 10 µM
threshold for potentiation of the GABA current (α1β2γ2L GABAAR; α1β2γ2L, pre-application): 1 µM
IC50 (α4β3δ GABAAR): 19.6 ± 13.1 µM
EC50 (α4β3δ GABAAR; EC50 of GABA EC20 modulation curve, α4β3δ, ∼EC20 GABA, n = 7): 1 ± 0.3 µM
EC50 (α4β3δ GABAAR; α4β3δ (αβδ), read-out: EC50 for direct activation by CGP7930 alone): 13.1 ± 1.4 µM
threshold for direct activation (α4β3δ GABAAR; α4β3δ, CGP7930 alone): 1 to 3 µM
SMILES: CC(C)(CO)Cc1cc(C(C)(C)C)c(O)c(C(C)(C)C)c1 [CGP7930, 3-(3′,5′-Di-tert-butyl-4′-hydroxy) phenyl-2,2-dimethylpropanol]
direct receptor activation of GABABRs ([1]; GIRK cells, CGP7930 pre-applied alone): no indication of direct receptor activation
maximal direct activation compared to maximal GABAAR activation by saturating muscimol ([2]; hippocampal neurons, n = 8): 42.1 ± 1.8%
sIPSC Amplitude ([3]; 100 nM): −70.0 ± 8.9 (7) pA
sIPSC Decay τ (weighted decay time) ([3]; 100 nM): 61.9 ± 7.2 (7) ms
sIPSC Frequency ([3]; 100 nM): 3.28 ± 0.62 (8) Hz
sIPSC Rise time (10–90%) ([3]; 100 nM): 2.5 ± 0.20 (9) ms
sIPSC Amplitude ([3]; 500 nM): −73.9 ± 8.8 (7) pA
sIPSC Decay τ (weighted decay time) ([3]; 500 nM): 100.8 ± 11 (7) ms
sIPSC Frequency ([3]; 500 nM): 1.53 ± 0.32 (8) Hz
sIPSC Rise time (10–90%) ([3]; 500 nM): 3.2 ± 0.39 (9) ms
sIPSC Amplitude ([3]; 1 μM): −124.6 ± 37.7 (7) pA
sIPSC Decay τ (weighted decay time) ([3]; 1 μM): 205.5 ± 117 (7) ms
sIPSC Frequency ([3]; 1 μM): 0.38 ± 0.07 (8) Hz
sIPSC Rise time (10–90%) ([3]; 1 μM): 16.1 ± 5.2 (9) ms
